Data published in ChEMBL document CHEMBL5584334, “Discovery of a Covalent Inhibitor of Pro-Caspase-1 Zymogen Blocking NLRP3 Inflammasome Activation and Pyroptosis” (J Med Chem, 2024).
Active and inactive are the calls of the source. No cut-off for these calls is given here.

Legend:
J774.A1 [1] = experiment: Inhibition of pyroptosis in mouse J774.A1 cells assessed as reduction in number of annexin V and PI positive cells pretreated with LPS for 3 hrs followed by compound addition in presence of nigericin by flow cytometry analysis; type: functional, cell-based
Caspase-3 (Mus musculus) = target: T1, Caspase-3 (Mus musculus) (UniProt P70677); experiment: Inhibition of cisplatin induced caspase-3 activation in mouse J774.A1 cells at 0.5 uM preincubated for 30 mins followed by cisplatin addition and incubated overnight; type: cell-based
T1 sequence (whole entry): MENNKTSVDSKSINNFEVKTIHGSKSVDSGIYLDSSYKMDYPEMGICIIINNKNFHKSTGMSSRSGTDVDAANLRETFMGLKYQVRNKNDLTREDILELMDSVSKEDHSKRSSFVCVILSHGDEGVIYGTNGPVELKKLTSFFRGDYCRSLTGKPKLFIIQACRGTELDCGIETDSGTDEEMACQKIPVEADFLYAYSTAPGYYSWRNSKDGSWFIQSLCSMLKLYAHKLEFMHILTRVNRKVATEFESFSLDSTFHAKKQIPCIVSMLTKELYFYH

Caspase-1 (Mus musculus) = target: T2, Caspase-1 (Mus musculus) (UniProt P29452); experiment: Binding affinity to caspase-1 in LPS-induced mouse J774.A1 cells assessed as reduction in IL-1beta level at 0.5 uM preincubated with compound followed by nigericin addition; type: cell-based; details: time 3-24 hrs
T2 sequence (whole entry): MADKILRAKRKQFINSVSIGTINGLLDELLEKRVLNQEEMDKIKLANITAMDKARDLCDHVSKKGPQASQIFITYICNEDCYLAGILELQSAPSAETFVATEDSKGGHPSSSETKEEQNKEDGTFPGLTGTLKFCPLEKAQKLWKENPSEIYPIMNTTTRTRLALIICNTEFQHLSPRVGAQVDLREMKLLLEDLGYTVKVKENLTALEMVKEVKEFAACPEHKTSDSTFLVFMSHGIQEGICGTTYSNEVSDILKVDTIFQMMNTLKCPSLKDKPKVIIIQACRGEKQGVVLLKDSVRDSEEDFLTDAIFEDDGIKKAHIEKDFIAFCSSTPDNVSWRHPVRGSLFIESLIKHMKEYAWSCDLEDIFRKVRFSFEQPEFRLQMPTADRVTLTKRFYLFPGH

J774.A1 [2] = experiment: Inhibition of pyroptosis in mouse J774.A1 cells assessed as reduction in caspase-1 to GSDMD interaction at 0.5 uM pretreated with LPS for 3 hrs followed by compound addition in presence of nigericin by immunoprecipitation analysis; type: functional, cell-based
J774.A1 [3] = experiment: Downregulation of IKKalpha/beta phosphorylation in mouse J774.A1 cells preincubated for 30 mins followed by LPS addition and measured after 2 hrs by Western blotting analysis; type: functional, cell-based; details: time 2.5 hrs
J774.A1 [4] = experiment: Downregulation of inhibitor kappa B-alpha phosphorylation in mouse J774.A1 cells preincubated for 30 mins followed by LPS addition and measured after 2 hrs by Western blotting analysis; type: functional, cell-based; details: time 2.5 hrs
J774.A1 [5] = experiment: Inhibition of pyroptosis in mouse J774.A1 cells assessed as reduction in cleaved GSDMD expression pretreated with LPS for 3 hrs followed by compound addition in presence of nigericin by Western blotting analysis; type: functional, cell-based
Caspase-7 (Mus musculus) = target: T3, Caspase-7 (Mus musculus) (UniProt P97864); experiment: Inhibition of cisplatin induced caspase-7 activation in mouse J774.A1 cells at 0.5 uM preincubated for 30 mins followed by cisplatin addition and incubated overnight; type: cell-based
T3 sequence (whole entry): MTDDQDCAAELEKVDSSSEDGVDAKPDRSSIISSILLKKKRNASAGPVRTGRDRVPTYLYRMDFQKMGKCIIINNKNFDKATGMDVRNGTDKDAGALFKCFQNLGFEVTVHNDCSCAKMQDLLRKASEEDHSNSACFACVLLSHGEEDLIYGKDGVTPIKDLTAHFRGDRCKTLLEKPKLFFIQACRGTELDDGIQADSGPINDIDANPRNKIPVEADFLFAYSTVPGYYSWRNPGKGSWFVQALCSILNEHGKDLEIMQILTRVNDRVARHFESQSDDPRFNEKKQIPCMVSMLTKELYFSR

J774.A1 [6] = experiment: Inhibition of pyroptosis in mouse J774.A1 cells assessed as reduction in LDH release at 0.5 to 2 uM pretreated with LPS for 3 hrs followed by compound addition in presence of nigericin; type: functional, cell-based; details: dose 0.5-2 µM
J774.A1 [7] = experiment: Downregulation of p65 phosphorylation in mouse J774.A1 cells preincubated for 30 mins followed by LPS addition and measured after 2 hrs by Western blotting analysis; type: functional, cell-based; details: time 2.5 hrs
Mus musculus = experiment: Anti-inflammatory activity in MSU/C18:0 free fatty acid induced ip dosed Kunming mouse model of gouty arthritis assessed as reduction in joint swelling preadministered with compound for 30 mins followed by MSU/C18:0 free fatty acid injection and measured after 24 hrs; type: functional, organism-based; details: time 24.5 hrs

Compound	inhibition (J774.A1 [1])	inhibition (Caspase-3 (Mus musculus))	Activity (Caspase-1 (Mus musculus))	inhibition (J774.A1 [2])	Activity (J774.A1 [3])	Activity (J774.A1 [4])	inhibition (J774.A1 [5])	inhibition (Caspase-7 (Mus musculus))	inhibition (J774.A1 [6])	Activity (J774.A1 [7])	Activity (Mus musculus)
CCO[C@@H]1OC(=O)C[C@@H]1NC(=O)[C@@H]1CCCN1C(=O)[C@@H](NC(=O)c1ccc(N)c(Cl)c1)C(C)(C)C	Active	inactive	inactive	Active	Active	Active	Active	inactive	Active	Active	–
COc1cc2c(c(OC)c1OC)-c1ccc(OC)c(=O)cc1[C@@H](NC(C)=O)CC2	–	–	–	–	–	–	–	–	–	–	Active
